According to patent US6437127B1, “Substituted cycloalkenes and their use as microbices, especially as fungicides” (Bayer Aktiengesellschaft, priority 1995, dated 2002):

Columns and labels:
[1] = tested on: Erysiphe graminis. f. sp. tritici; assay: Erysiphe test (wheat)/curative; assay type: in vivo; settings: curative, sprayed 48 hours after inoculation, application rate 250 g/ha, evaluation 7 days after inoculation
Protocol: Erysiphe Test (Wheat)/Curative Solvent: 10 parts by weight of N-methyl-pyrrolidone Emulsifier: 0.6 parts by weight of alkylaryl polyglycol ether To produce a suitable preparation of active compound, 1 part by weight of active compound is mixed with the stated amounts of solvent and emulsifier, and the concentrate is diluted with water to the desired concentration. To test for curative activity, young plants are dusted with spores of Erysiphe graminis. f. sp. tritici. 48 hours after the inoculation, the plants are sprayed with the preparation of active compound at the stated application rate. The plants are placed in a greenhouse at a temperature of about 20° C. and a relative atmospheric humidity of about 80%, in order to promote the development of mildew […]. Evaluation is carried out 7 days after the inoculation.

[2] = tested on: Pseudocercosporella herpotrichoides; assay: Pseudocercosporella herpotrichoides test (wheat)/protective; assay type: in vivo; settings: protective, application rate 250 g/ha, evaluation 21 days after inoculation
Protocol: Pseudocercosporella Herpotrichoides Test (Wheat)/Protective Solvent: 10 parts by weight of N-methyl-pyrrolidone Emulsifier: 0.6 parts by weight of alkylaryl polyglycol ether To produce a suitable preparation of active compound, 1 part by weight of active compound is mixed with the stated amounts of solvent and emulsifier, and the concentrate is diluted with water to the desired concentration. To test for protective activity, young plants are sprayed with the preparation of active compound at the stated application rate. After the spray coating has dried on, the stem bases of the plants are inoculated with spores of Pseudocercosporella herpotrichoides. The plants are placed in a greenhouse at a temperature of about 10° C. and a relative atmospheric humidity of about 80%. Evaluation is carried out 21 days after the inoculation.

melting point: 135 to 140 °C
SMILES: CNC(=O)C(=NOC)C1=C(/C=C/c2ccccc2)CCC1 [compound (1)]
efficacy [1]: 75%
efficacy [2]: 90%
